Experiments:
HUVECs = assay: Cell viability assay (MTS); format: cell-based, Human; details: 24 h incubation, n = 3
Protocol: Cell viability was assessed using the MTS assay (Promega). Briefly, HUVECs were seeded at 5000 cells/well in triplicate in a 96-well plate. When the density of the cells reached approximately 80 %, MLT at different concentrations was added, and the cells were incubated for 24 h. Then, 20 μL of MTS reagent was added to each well, followed by incubated for 2 h. Absorbance was measured at 490 nm using a microplate reader.

[1] = In vivo and ex vivo fluorescence imaging (biodistribution, blood and lung retention); parameters: species or system C57BL/6 mice
Protocol: To evaluate the biodistribution and lung targeting of MLT and M-pLNP, two fluorescence imaging experiments were performed in a BLM-induced PF model. In the first study, normal and PF mice (n = 6) received a single intraperitoneal injection of MLT-RhB (or PBS control), and were euthanized 30 min later for collection of major organs. In the second study, PF mice were randomly divided into two groups receiving either MLT-RhB or M-pLNP-RhB. Comprehensive in vivo whole-body fluorescence imaging was performed at multiple time points (10 min, 30 min, 1 h, 3 h and 6 h) after administration. Additionally, ex vivo analysis was conducted by collecting blood samples and lung tissues at […] critical time points (10 min, 30 min, 1 h, 6 h, 12 h, and 24 h). All imaging was performed using an IVIS Lumina XRMS system, in vivo and ex vivo samples were imaged through RhB channels (Ex/Em = 545/570 nm). Mean fluorescence intensity was used to quantitatively assess tissue distribution and lung accumulation.

NRP-1 receptor on HUVECs = assay: In vitro cell targeting (uptake of MLT-RhB, flow cytometry and confocal imaging); format: cell-based, Human; details: flow cytometry; HUVECs with TGF-β1 10 ng/mL 48 h; MLT-RhB 2 μg/mL 1 h; n = 3
Protocol: To assess the NRP-1 receptor-targeting ability of MLT, HUVECs were seeded into 96-well plates at a density of 1.5 × 10^4 cells per well and cultured overnight in complete growth medium. TGF-β1 (10 ng/mL) was added to all groups except the control group and incubated for 48 h. Subsequently, each group was treated with the RPARPAR peptide (0.5 mM) for 1 h, followed by the addition of MLT-RhB (2 μg/mL) for an additional hour. For flow cytometry, cells were processed and analyzed using a flow cytometer (Dakewe Biotech Co., Ltd., China), and data were analyzed with FlowJo software (FlowJo, Ashland, OR, USA). For immunofluorescence, following the same treatment protocol, cells were fixed with 4 % paraformaldehyde and immunostained. NRP-1 was detected using an anti-NRP-1 primary antibody and an Alexa Fluor® 647-conjugated secondary antibody. Nuclei were stained with DAPI. Imaging was performed using a SpinSR10 spinning disk confocal super-resolution microscope (Olympus, Japan) with the following excitation wavelengths: 405 nm for DAPI; 535 nm for RhB; and 640 nm for NRP-1.

[2] = RhB-labeled, single i.p. injection, PF mice, ex vivo lung fluorescence, n = 3

| Molecule | concentration at which MLT started to induce cellular toxicity (HUVECs) [ng/mL] | time within which the blood fluorescence signal was nearly undetectable ([1]; RhB-labeled, single i.p. injection, 15 nmol RhB equivalent per mouse, PF mice, blood samples) [h] | time within which the peritoneal fluorescence signal was substantially weakened ([1]; RhB-labeled, single i.p. injection, 15 nmol RhB equivalent per mouse, PF mice, in vivo imaging) [min] | time by which lung fluorescence reached near-background levels (clearance) [1, 2] [h] | time of peak lung accumulation [1, 2] [min] | lung radiant efficiency, PF lungs vs control ([1]; MLT-RhB single intraperitoneal injection, ex vivo imaging 30 min post-injection, PF vs normal mice, n = 3) [fold] | mean fluorescence intensity (MFI) of RhB in TGF-β1 group vs control group (uptake) (NRP-1 receptor on HUVECs) |
| --- | --- | --- | --- | --- | --- | --- | --- |
| CC[C@H](C)[C@H](NC(=O)CN)C(=O)NCC(=O)N[C@@H](C)C(=O)N[C@H](C(=O)N[C@@H](CC(C)C)C(=O)N[C@@H](CCCCN)C(=O)N[C@H](C(=O)N[C@@H](CC(C)C)C(=O)N[C@H](C(=O)N[C@H](C(=O)NCC(=O)N[C@@H](CC(C)C)C(=O)N1CCC[C@H]1C(=O)N[C@@H](C)C(=O)N[C@@H](CC(C)C)C(=O)N[C@H](C(=O)N[C@@H](CO)C(=O)N[C@@H](Cc1c[nH]c2ccccc12)C(=O)N[C@H](C(=O)N[C@@H](CCCCN)C(=O)N[C@@H](CCCNC(=N)N)C(=O)N[C@@H](CCCCN)C(=O)N[C@@H](CCCNC(=N)N)C(=O)N[C@@H](CCC(N)=O)C(=O)N[C@@H](CCC(N)=O)C(N)=O)[C@@H](C)CC)[C@@H](C)CC)[C@@H](C)O)[C@@H](C)O)C(C)C)C(C)C [MLT, Melittin] | 8000 | ≤ 6 | 30 | ≤ 6 | 30 |  |  |
| MLT-RhB: Rhodamine B-labeled MLT |  |  |  |  |  | ~1.5 | significantly higher than that in the control group |

— publication PMC12794516, “Modulation of endothelial-to-mesenchymal transition via NRP-1 targeting with melittin attenuates pulmonary fibrosis” (Materials Today Bio, 2025)
